Bounds are passed on as bounds.

Broadly, the melting point is the temperature of the solid-liquid transition. In turn, `CC(C)N(C(=O)Cn1cncn1)c1ccccc1` came in with a melting point of 125 °C. To `COC(=O)NCCCCC(NC(=O)OC)C(=O)OC` (configuration not stated) belongs 187 to 189 °C; to `CCCCc1nc2c(N)nc3ccc(OCC(=O)N(C)Cc4ccccc4)cc3c2n1C`, 167 to 169 °C.

`Nc1c2c(nc3ccccc13)C1CCC2CC1` registered a melting point of 197 to 199 °C.

With `CCOC(=O)c1ncc2[nH]c3cccc(OCc4ccccc4)c3c2c1COC`, the melting point was in the range of 130 to 131 °C.

In turn, `OC[C@H]1O[C@H]1c1ccsc1` (racemic) showed a melting point of 63 to 65 °C.

On to `Cc1cc(C)cc(Oc2[nH]c(=O)[nH]c(=O)c2C(C)C)c1`, for which the melting point was 91 to 92 °C. Consider `COc1ccc(C2c3cc(OC)c(OC)cc3CCN2C(=O)NCCN(C(C)C)C(C)C)cc1OC` (configuration not stated), for which the melting point lay in the range of 114 to 115 °C. To `O=c1cc(-c2ccccc2)cc2n1CCN2Cc1ccccc1` belongs 165 to 167 °C; to `N#CCCSCc1csc(=O)[nH]1`, 108 to 111 °C. To `CC(=O)Oc1ccccc1C(=O)Oc1ccc(CO[N+](=O)[O-])cc1` belongs 86 to 88 °C. To `CC1(Cc2ccccc2)CCNC1=O` (configuration not stated) belongs 89 to 90 °C; to `COc1ccccc1CN=C1C2CCN(CC2)C1C(c1ccccc1)c1ccccc1` (configuration not stated), 154 to 158 °C. `CCN(C(=O)c1ccccc1C(=O)c1ccc(Cl)cc1)C(C)(C)CNS(=O)(=O)c1ccc(C)cc1`: the melting point is 175 to 176 °C. To `Cc1nnc(C(C)C)n1C1CC2CCC(C1)N2CCC(NC(=O)C1CCC(F)(F)CC1)c1ccc(N)cc1` (configuration not stated) belongs 103 to 105 °C; to `COc1cc(NC(=O)c2ccccc2Cl)ccc1C(=O)N1CCCC(OCCNC(N)=O)c2cc(Cl)ccc21` (configuration not stated), 206 to 207 °C. Take `CCc1c(Cc2ccccc2)oc2c(C(=O)NCCCN3CCN(c4ccccc4OC)CC3)cccc12`: the melting point is 110 to 112 °C. For `C[C@@H](O)c1nccc(N2CCn3c(nnc3-c3nc4ccccc4s3)C2)n1`, the melting point lay within 216 to 218 °C.

In turn, `Nc1ccc2ccccc2c1-c1c(P(c2ccccc2)c2ccccc2)ccc2ccccc12` displayed a melting point of 105 °C. `O=C(NCCCCCCNC(=O)c1ccc2c(c1)OCO2)c1ccc2c(c1)OCO2` registered a melting point of 183 to 185 °C. To `CC(=NO)c1ccc(N)c(C(=NO)c2ccccc2F)c1` belongs 165 °C; to `COc1ccc(-c2cc(O)nc(C)n2)cc1`, 270 to 272 °C; to `Nc1nc2c(sc(=O)n2COCCO)c(=O)[nH]1`, 230 to 232 °C.

The compound `COC(=O)C1=C(c2ccccc2)C(c2ccccc2)OC1=O` (configuration not stated) gave a melting point of 113 to 115 °C. To `CCOC(=O)CN1C(=O)C(=C(C)C)SC1=Nc1cc(-n2c(=O)cc(C(F)(F)F)n(C)c2=O)c(F)cc1Cl` belongs 67 to 80 °C; to `FC(F)(F)c1cc(Oc2cc(Oc3ccc(Cl)c(C(F)(F)F)c3)ncn2)ccc1Cl`, 111 °C.

`Cc1nc(Cl)c2c(C)c(C)n(-c3c(Br)cc(C(F)(F)F)cc3Br)c2n1` registered a melting point of 202 to 204 °C. Take `CC(C)Cc1ccc(COc2ccc(CC(=O)O)cc2Cl)cc1`: the melting point fell in the range of 97 to 99 °C. Regarding `CC(=O)c1cc2sc(C)c(N(C)S(=O)(=O)c3cccs3)c2[nH]1`, the melting point turned out to be 220 °C.

On to `COc1cc2c(cc1OC)CN(CCCOc1ccc(NC(=O)c3nccc4ccccc34)cc1)CC2`, for which the melting point is 160 °C. Compound `COC(=O)c1sccc1S(=O)(=O)N=C(N)NNc1nc(C)cc(C)n1` registered a melting point of 213 °C. Compound `Cc1cnc(C)c(Cl)c1N` came in with a melting point of 82 to 83 °C. The compound `COc1cccc(Cn2c(=O)c3c(N4CCN(C)CC4)cc(Cl)cc3n(Cc3ccccc3)c2=O)c1` registered a melting point of 98 to 110 °C.

Take `COCCOc1cc(Oc2ccc(C(F)(F)F)cn2)ccc1CCCOc1cc(CCC(=O)O)n(-c2ccccc2)n1`: the melting point was in the range of 83 to 85 °C.

`CCC(CC)(C(N)=O)c1ccc(Cl)cc1`: the melting point is 107 to 109 °C. As for `Cc1c(S(=O)(=O)c2ccc(=O)[nH]n2)oc2cccc(Cl)c12`, the melting point was in the range of 232 to 233 °C. To `CC(=O)OCC1CCC2C3CCC4=CC(=O)CCC4(C)C3CCC12C` (configuration not stated) belongs 141 to 142 °C.

`CCC1c2cccn2-c2ccc(F)cc2N1C(=O)c1cccc(O)c1` (configuration not stated) gave a melting point of 115 to 117 °C. To `COC(=O)C1CCC2C3CCC4CC(OC(C)=O)C(OC)CC4(C)C3C(NC3CCCCC3)CC12C` (configuration not stated) belongs 87 to 89 °C; to `O=c1c(C2=CS(=O)(=O)c3cc(NS(=O)(=O)C4CC4)ccc3N2)c(O)c2cc(F)ccc2n1CCC1CC1`, 145 to 155 °C.

Compound `CC(C)(C)NC(=O)c1cccc(C(=O)O)c1O` had a melting point of 191 to 195 °C. To `CC(C)(C)NC[C@H](Cc1ccc(OCc2ccccc2)cc1)NC(=O)OC(C)(C)C` belongs 77 to 79 °C; to `Cc1nc2ccc(C(C)(C)CNC=O)cc2[nH]1`, 57 to 60 °C; to `CCCCCCCCCCCCCCCCCC(=O)OC[C@H]1OCC(=NO)[C@@H](O)[C@@H]1O`, 99 to 105 °C.

`CCC(CC)Nc1c([N+](=O)[O-])cc(CC=NO)c(C(C)C)c1[N+](=O)[O-]` displayed a melting point of 114 to 115 °C. To `CC(=O)ON1C(C)(C)CC(OC(=O)c2ccc(C(=O)OC3CC(C)(C)N(OC(C)=O)C(C)(C)C3)cc2)CC1(C)C` belongs 206 to 212 °C. The compound `COC1C(O)C(CO)OC1n1cnc2c(=O)[nH]c(N)nc21` (configuration not stated) had a melting point of 236 to 238 °C. On to `COCn1c(-c2ccncc2)c(C)c(CO)c1-c1ccncc1`, for which the melting point lay in the range of 181 to 183 °C.

The compound `O=C(Nc1cc(C(=O)O)cc(C(=O)O)c1)Oc1ccc([N+](=O)[O-])cc1` gave a melting point of more than 300 °C.

In the case of `CCSc1nc(-c2ccc(OC)cc2)c(-c2ccc(OC)cc2)[nH]1`, the melting point lay in the range of 108 to 109 °C. Take `CC(=O)C1C(C)CC2C3CCC4=CCC=CC4(C)C3CCC21C` (configuration not stated): the melting point worked out at 175 °C. To `COc1c2c(nc3ccccc13)CCN(Cc1ccccc1)CC2` belongs less than 20 °C.

`CCOC(=O)c1c(SCc2ccc(OC)cc2)c(CC)c2cc(Cl)ccn2c1=O` showed a melting point of 159 to 160 °C. To `NC(=O)c1[nH]cnc1OC(=O)C=Cc1ccc(C=O)cc1` belongs 233 °C; to `CC(C)(C)c1cc2c(cc1O)OC(C(=O)O)=CO2`, 144 °C. To `COc1ccc(-c2c(C)ncc(C#N)c2Nc2cccc3[nH]ccc23)cc1OC` belongs 182 to 183 °C; to `COc1cc2c(c(Cl)c1Cl)C(=O)C(C)(c1ccccc1)C2c1ccccc1` (configuration not stated), 197 to 207 °C. The compound `COc1cccc(C(C[N+](=O)[O-])SC(=S)N(C)C)c1OC(C)=O` (configuration not stated) gave a melting point of 124 to 126 °C. To `CC(C)(C)OC(=O)NC(COCc1ccccc1)c1nc2c(C(F)(F)F)cccc2c(=O)o1` (configuration not stated) belongs 98 °C; to `CCn1ncc2c1ncc1c(=O)[nH]c3nc(S(C)=O)nn3c12` (configuration not stated), more than 300 °C. To `Cc1c(C)c2c(c(C)c1NC=O)CC(C)(CSc1nc3ccccc3s1)O2` (configuration not stated) belongs 190 to 192 °C; to `NS(=O)(=O)c1ccc(-n2nc(C(F)(F)F)cc2-c2nc3ccc(F)cc3s2)cc1`, 260 to 261 °C.

Values taken from a melting point compilation (Tetko et al.; mined from patent text by program, amines drawn as free bases though some values may be those of a salt).
